Measured values taken from patent US20190209501A1, “COMPOSITIONS AND METHODS OF USE OF BETA-HYDROXY-BETA-METHYLBUTYRATE (HMB) […] IN[…]” (Texas Tech University Office of Research Commercialization, priority 2018, published 2019).
Entries after “also recorded” stand apart in the source; their conditions may differ. Marks after values point to notes of the source that are not given here.

Assays:
[1] = Body composition, modified 4-component model (DXA + BIS), and body mass; format: in vivo, human; settings: for FM (kg) Week 4 / FM (kg) Week 8: 4-component fat mass; for FFM (kg) Week 4 / FFM (kg) Week 8: 4-component fat-free mass; for BF % ES (d) / BM ES (d) / FFM ES (d) / FM ES (d): Cohen's d baseline vs week 8; for BM (kg) Week 4 / BM (kg) Week 8: body mass; for BF % Δ (%) / BM Δ (%) / FFM Δ (%) / FM Δ (%): change baseline to week 8 relative to baseline; for BM (kg) Δ / FFM (kg) Δ / FM (kg) Δ: week 8 minus baseline; for BF % Δ: week 8 minus baseline (absolute BF %)
Excerpt: At baseline and after 4 and 8 weeks of the intervention, participants completed two testing sessions: (1) a morning assessment conducted after an overnight fast for assessment of body composition, metabolism, vascular measures and subjective factors: and (2) an afternoon assessment of muscular performance, conducted in the non-fasted state. For morning assessments, participants reported to the laboratory after abstention from eating, drinking, exercising and utilizing caffeine or nicotine for ≥8 hours. Participants were interviewed to confirm adherence to these pre-assessment restrictions. The actual abstention from exercise was ≥14 hours due to the scheduling of exercise sessions. Participants reported to the laboratory wearing athletic clothing, and all metal and accessories were removed from the body prior to testing. Each participant voided her bladder and provided a urine sample. Urine samples were assessed for urine specific gravity (USG) using a digital refractometer (PA201X-093. Misco, Solon, Ohio. USA). Additionally, a standard urinary HCG test was performed to confirm that each participant was not pregnant. Finally, urinary samples were frozen at −80° C. for assessment of urinary HMB content after study unblinding. After voiding, each participant's body mass (BM) and height were determined via digital scale with stadiometer (Seca 769, Hamburg, Germany). Blood draws were performed at Texas Tech University Student Health Services after an overnight fast, and participants completed at-home saliva collections for assessment of the cortisol awakening response (CAR).
Body composition was assessed using a modified 4-component (4C) model (20, 21) produced from dual-energy x-ray absorptiometry (DXA) and bioimpedance spectroscopy (BIS) data. DXA scans were performed on a Lunar Prodigy scanner (General Electric, Boston, Mass., USA) with enCORE software (v. 16.2). The scanner was calibrated using a quality control block each morning prior to use, and positioning of participants was conducted according to manufacturer recommendations. Each participant was able to fit within the scanning dimensions. DXA bone mineral content (BMC) was divided by 0.9582 to yield an estimate of bone mineral (Mo) (22). Additionally, body volume (BV) was estimated from DXA lean soft tissue (LST), fat mass (FM) and BMC using the equation developed by Wilson et al. for General Electric DXA scanners (20):
BIS was utilized to obtain total body water (TBW) estimates. BIS utilizes Cole modeling (23) and mixture theories (24) to predict body fluids rather than regression equations used by other impedance methods (e.g. bioelectrical impedance analysis (25)). The BIS device used in the present study (SFB7, ImpediMed. Carlsbad, Calif., USA) employs 256 measurement frequencies ranging from 4 to 1,000 kHz. Each participant remained supine for ≥5 minutes immediately prior to assessment using the manufacturer-recommended hand-to-foot electrode arrangement. Duplicate assessments were performed, with the values averaged for analysis. Assessments were reviewed for quality assurance through visual inspection of Cole plots.
The 4C equation of Wang et al. was utilized for estimation of whole-body FM (26):
FFM was calculated as BM−FM, and BF % was calculated as (FM/BM)×100.

[2] = Percent body fat by underwater weighing, HMB without intermittent fasting (Panton et al.); format: in vivo, human; settings: 3 g/d Calcium-HMB without intermittent fasting + RT
Procedure: In an earlier study described in Panton et al. (54) trained and untrained females (n=18, 27±2.1 y, 62.3±2.2 kg) were randomized to 3 g/d Calcium-HMB without intermitted fasting. The HMB only group completed 4 weeks of supervised resistance training and trained three times per week. Body composition was measured before and after the 4 weeks of training using underwater weighing procedures (55). Percent body fat (BF %) was estimated from the Siri equation^5.

[3] = ITT analysis, week 4, mean ± SE
[4] = ITT analysis, week 8, mean ± SE

## CC(C)(O)CC(=O)O [TRFHMB, β-hydroxy-β-methylbutyrate]
[1]; 4 weeks
  Absolute effect size for BF % loss, TRFHMB relative to HMB only: 2 fold
[1]; ITT analysis, 4-component body fat percentage, week 4, mean ± SE
  BF % Week 4: 27.1 ± 1.7%
[1]; ITT analysis, 4-component body fat percentage, week 8, mean ± SE
  BF % Week 8: 27.3 ± 1.6%
[1]; [3]
  FM (kg) Week 4: 17.5 ± 1.5 kg
  FFM (kg) Week 4: 46.5 ± 1.4 kg
  BM (kg) Week 4: 63.9 ± 2.2 kg
[1]; [4]
  FM (kg) Week 8: 17.5 ± 1.5 kg
  FFM (kg) Week 8: 46.2 ± 1.3 kg
  BM (kg) Week 8: 63.8 ± 2.1 kg
[1]; ITT analysis
  BF % ES (d): −0.25
  BM ES (d): 0.08
  FFM ES (d): 0.26
  FM ES (d): −0.13
  BF % Δ (%): −5%
  BM Δ (%): 1%
  FFM Δ (%): 3%
  FM Δ (%): −4%
  BM (kg) Δ: 0.6 kg
  FFM (kg) Δ: 1.2 kg
  FM (kg) Δ: -0.7 kg
  BF % Δ: −1.4%
[1]; PP analysis
  Fat mass change versus baseline (in words): significant reductions; also recorded: lower at W8 than baseline
  BF % ES (d): −0.34
  BM ES (d): 0.00
  FFM ES (d): 0.32
  FM ES (d): −0.23
  BF % Δ (%): −8%
  BM Δ (%): 0%
  FFM Δ (%): 3%
  FM Δ (%): −7%
  BM (kg) Δ: 0.0 kg
  FFM (kg) Δ: 1.4 kg
  FM (kg) Δ: -1.4 kg
  BF % Δ: −2.3%
[1]; PP analysis, 4-component body fat percentage, week 8, mean ± SE
  BF % Week 8: 26.8 ± 2.6^b %
[1]; PP analysis, week 4, mean ± SE
  FM (kg) Week 4: 17.5 ± 2.5 kg
  FFM (kg) Week 4: 46.8 ± 1.8 kg
[1]; PP analysis, week 8, mean ± SE
  FM (kg) Week 8: 17.3 ± 2.3^b kg
  FFM (kg) Week 8: 46.4 ± 1.6 kg
  BM (kg) Week 8: 63.7 ± 3.0 kg
[1]; PP analysis, week 4 of TRF + 3 g/d HMB + RT, mean ± SE
  BM (kg) Week 4: 64.2 ± 3.1 kg
[1]; PP analysis, week 8
  Reduction in BF % at W8 (significance): statistically significant
[1]; PP, TRF + 3 g/d Calcium-HMB + RT, n=7
  BF % 4-week effect size (d): −0.31
[1]; PP, TRF + 3 g/d Calcium-HMB + RT, n=7, baseline 29.1±2.5, p<0.05
  BF % 4-week Δ-change: −2.1%
[2]
  BF % 4-week effect size (d): −0.15
